# In the supplement of paper PMC10307832:
# How the values were obtained:
# Assay in all cases: relative viability (nuclei count vs DMSO), 5 days (fraction); higher = more cells survive
# [1] = compound: C1=CC2=NC=CN=C2C=C1/C=C/3\C(=O)NC(=O)S3 + COc1cccc2cc(-c3nc([C@H]4CC[C@H](C(=O)O)CC4)n4ncnc(N)c34)[nH]c12 [OSI-027] (partner 0.5 µM)
# Summary of the method: (§1)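 Relative viability was taken as the ratio of nuclei in treated wells to nuclei in vehicle wells. Lung cancer cell lines in 1536-well plates received compounds by pin tool one day after seeding, either one drug alone or a fixed anchor-drug dose plus five library-drug doses (not always all listed) in √10 steps. Nuclei were counted on 4× images after 5 days of treatment, and values are medians of duplicate plates.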
# BGJ398 + Dasatinib = compound: CCN1CCN(c2ccc(Nc3cc(N(C)C(=O)Nc4c(Cl)c(OC)cc(OC)c4Cl)ncn3)cc2)CC1 [BGJ398] + Cc1nc(Nc2ncc(C(=O)Nc3c(C)cccc3Cl)s2)cc(N2CCN(CCO)CC2)n1 [Dasatinib] (partner 0.075 µM)
# Summary of the method: as §1
# BGJ398 + Lapatinib = compound: CCN1CCN(c2ccc(Nc3cc(N(C)C(=O)Nc4c(Cl)c(OC)cc(OC)c4Cl)ncn3)cc2)CC1 [BGJ398] + CS(=O)(=O)CCNCc1ccc(-c2ccc3ncnc(Nc4ccc(OCc5cccc(F)c5)c(Cl)c4)c3c2)o1 [Lapatinib] (partner 2 µM)
# Summary of the method: as §1
# [2] = compound: C1=CC2=NC=CN=C2C=C1/C=C/3\C(=O)NC(=O)S3 + CS(=O)(=O)N1CCN(Cc2cc3nc(-c4cccc5[nH]ncc45)nc(N4CCOCC4)c3s2)CC1 [Pictilisib] (partner 1 µM)
# Summary of the method: as §1
Cell Line,relative viability ([1]; first compound 0.02 µM),relative viability ([1]; first compound 0.06325 µM),relative viability ([1]; first compound 0.2 µM),relative viability ([1]; first compound 0.6325 µM),relative viability ([1]; first compound 2 µM),relative viability (BGJ398 + Dasatinib; first compound 0.01 µM),relative viability (BGJ398 + Dasatinib; first compound 0.03162 µM),relative viability (BGJ398 + Dasatinib; first compound 0.1 µM),relative viability (BGJ398 + Dasatinib; first compound 0.3162 µM),relative viability (BGJ398 + Dasatinib; first compound 1 µM),relative viability (BGJ398 + Lapatinib; first compound 0.01 µM),relative viability (BGJ398 + Lapatinib; first compound 0.03162 µM),relative viability (BGJ398 + Lapatinib; first compound 0.1 µM),relative viability (BGJ398 + Lapatinib; first compound 0.3162 µM),relative viability (BGJ398 + Lapatinib; first compound 1 µM),relative viability ([2]; first compound 0.02 µM),relative viability ([2]; first compound 0.06325 µM),relative viability ([2]; first compound 0.2 µM),relative viability ([2]; first compound 0.6325 µM),relative viability ([2]; first compound 2 µM)
NCI-H522,0.706,0.763,0.675,0.717,0.562,0.641,0.837,0.785,0.779,0.76,–,–,–,–,–,–,–,–,–,–
HCC-15,0.759,0.672,0.726,0.641,0.373,0.648,0.645,0.631,0.639,0.576,0.854,0.855,0.82,0.969,0.974,0.765,0.787,0.86,0.665,0.754
A-427,0.476,0.55,0.54,0.435,0.365,0.656,0.694,0.674,0.348,0.598,1.07,1.01,1.05,0.938,0.949,0.711,0.685,0.788,0.675,0.679
NCI-H2228,0.665,0.581,0.525,0.661,0.335,0.471,0.498,0.516,0.567,0.423,1.01,1.24,0.742,1,1.04,0.384,0.36,0.441,0.274,0.22
NCI-H1734,0.697,0.487,0.665,0.522,0.324,0.443,0.53,0.514,0.425,0.468,0.992,1.03,1.11,0.961,1.06,0.426,–,0.509,0.421,0.274
PC-14,0.771,0.67,0.815,0.804,0.692,0.294,0.0382,0.234,0.141,0.317,0.282,0.255,0.352,0.251,0.31,0.636,0.75,0.735,0.652,0.531
NCI-H1915,0.679,0.71,0.727,0.674,0.603,0.308,0.306,0.309,0.295,0.261,0.976,0.977,0.988,1.01,0.928,0.956,1.15,1.12,0.774,0.97
NCI-H1666,0.873,0.825,0.84,0.812,0.459,0.764,0.802,0.911,0.759,0.697,0.656,0.704,0.508,0.7,0.255,0.286,0.39,0.403,0.534,0.327
HCC-366,0.727,–,1.06,0.823,0.322,0.626,0.681,0.793,0.6,0.558,1.11,1.07,1.07,1.06,0.924,0.151,0.0838,0.14,0.11,0.117
SK-MES-1,0.658,0.467,0.715,0.577,0.392,0.421,0.33,0.433,0.426,0.418,0.414,0.44,0.448,0.396,0.376,0.385,0.391,0.375,0.353,0.335
SW 1573,0.63,0.946,0.725,0.532,0.312,0.439,0.668,0.466,0.462,0.574,1.03,1.12,1.08,1.02,0.984,0.525,0.511,0.524,0.555,0.441
NCI-H661,0.785,0.796,0.682,0.621,0.584,0.835,0.854,0.897,0.79,0.746,0.501,0.595,0.473,0.457,0.49,0.392,0.436,0.513,0.378,0.329
PC-3 [JPC-3],0.711,0.777,0.783,0.767,0.636,0.949,–,1.02,0.854,1.01,0.44,–,0.412,0.478,0.348,0.687,0.881,0.594,0.65,0.8
NCI-H1623,0.411,0.415,0.419,0.421,0.253,0.586,0.525,0.564,0.525,0.478,–,–,–,–,–,–,–,–,–,–
Calu-6,–,–,–,–,–,–,–,–,–,–,1.04,1.13,1.07,1.09,1.03,0.923,1.15,1.04,0.989,0.973
LC-2-ad,0.893,0.752,0.807,0.757,0.454,0.572,0.756,0.566,0.538,0.433,0.937,1.02,1,0.978,0.912,0.465,0.533,0.478,0.411,0.335
CAL-12T,0.489,0.648,0.741,0.542,0.33,0.534,0.554,0.443,0.386,0.325,0.661,0.685,0.763,0.726,0.585,0.341,0.444,0.716,0.39,0.64
RERF-LC-KJ,0.571,0.569,0.704,0.606,0.332,0.655,0.933,0.753,0.858,0.819,0.86,0.88,0.908,0.924,0.724,0.502,0.457,0.492,0.518,0.482
